Data reported in patent US12065407B2, “Dual acting FKBP12 and FKBP52 inhibitors” (PLEX PHARMACEUTICALS, INC., priority 2017, dated 2024).
“And” between values parts separate entries of the source, which are not always exact repeats. Equal entries are not always repeated. Where two headings read alike, the source gives them in different places. One block for each molecule: values may come before it.

Legend:
[1] = test system: A53T mutant α-synuclein overexpressing BE(2)-M17 cells (M3.2); experiment: Neuroprotection in A53T mutant α-synuclein overexpressing BE(2)-M17 cells (M3.2); type: cell-based, human; conditions: for Neuroprotection (cell viability): A53T mutant α-synuclein cells (M3.2), Alamar Blue assay
Description: (§1) BE(2)-M17 human neuroblastoma cells engineered to stably express either wild type or A53T mutant α-synuclein, PC12 rat pheochromocytoma, or SH-SY5Y human neuroblastoma cells were cultured in 96-well cell culture dishes in a humidified incubator at 37° C., 5% CO2. The growth medium was supplemented with 0.1% dimethyl sulfoxide (vehicle control) or compounds dissolved in dimethyl sulfoxide. Following 2 hours of exposure to compounds, the growth medium was further supplemented with 6-hydroxydopamine (or 0.1% ascorbic acid vehicle control) and incubated for an additional 24-48 hours.
(§2) See FIGS. 1A and 1B for neuroprotection observed in PC12 cells treated with dual acting FKBP12 and FKBP52 inhibitory exemplary compounds CAP01687 (FIG. 1A) and CAP01693 (FIG. 1B) measured using WST-8 assay. Specifically, FIGS. 1A and 1B, show relative percent protection from 6-OHDA, the vehicle control being set to 0% relative protection. […] Neuroprotection was also observed in A53T mutant α-synuclein overexpressing BE(2)-M17 cells (M3.2) treated with CAP01687 (FIG. 3B). The bars in FIGS. 3A and 3B depict relative percent fluorescence, which is proportional to cell viability, with the vehicle control being 100%.]
as §1, with “pheochromocytoma cells,” for “pheochromocytoma,”, “C. and” for “C.,”, “(OHDA) or” for “(or”, “hours. […]” for “hours.”

[2] = test system: wild type α-synuclein overexpressing BE(2)-M17 cells (WT21); experiment: Neuroprotection in wild type α-synuclein overexpressing BE(2)-M17 cells (WT21); type: cell-based, human; conditions: Alamar Blue assay
Description: as §1
as §2, with “Cell viability was measured by reduction of WST-8 or AlamarBlue® and the relative protection from 6-hydroxydopamine was measured by calculating the percentage of viable cells normalized to 6-hydroxydopamine treated cells in the absence of compound. See” for “See”
BE(2)-M17 human neuroblastoma cells engineered to stably express either wild type or A53T mutant α-synuclein, PC12 rat pheochromocytoma cells, or SH-SY5Y human neuroblastoma cells were cultured in 96-well cell culture dishes in a humidified incubator at 37° C. and 5% CO2. The growth medium was supplemented with 0.1% dimethyl sulfoxide (vehicle control) or compounds dissolved in dimethyl sulfoxide. […]
Cell viability was measured by reduction of WST-8 or alamarBlue® and the relative protection from 6-hydroxydopamine was measured by calculating the percentage of viable cells normalized to 6-hydroxydopamine treated cells in the absence of compound.

[3] = Microsomal stability (Clint assay), human liver microsome; type: in vitro ADME; conditions: both sexes, liver microsomes, pH 7.4, 1 μM compound, 0.5 mg/mL protein, 1 mM NADPH, 37° C.; for microsomal CLint at 1 μM: read-out: Clearance CL int (human microsomes); for half-life at 1 μM: read-out: Human microsomes T1/2
Description: (§3) Microsomal stability measurements were carried out by Clint assay. Test compounds were incubated with liver microsome, and metabolic stability was determined over 45 minutes. The experimental conditions were as follows. […]

[4] = Microsomal stability (Clint assay), rat liver microsome; type: in vitro ADME; conditions: male, Sprague-Dawley, liver microsomes, pH 7.4, 1 μM compound, 0.5 mg/mL protein, 1 mM NADPH, 37° C.; for microsomal CLint at 1 μM: read-out: Clearance CL int (rat microsomes); for half-life at 1 μM: read-out: Rat microsomes T1/2
Description: as §3

[5] = Distribution of inhibitors in plasma and brain after intravenous dosing of mice; type: in vivo; conditions: 1 mg/kg IV; for Plasma Concentrations, mean: n = 5; for concentration at 1 h / concentration at 0.15 h / concentration at 0.5 h: male, CD1, mouse, iv, 1 mg/kg
Description: Distribution of inhibitors in plasma and brain tissue was examined after intravenous dosing of mice with inhibitors. The experimental conditions were as follows: Mice: male CD1 about 8 weeks old; body weight: about 25 g; No. of groups: one; No. of animals per group: 5; vehicle for IV dosing: DMSO; dosage: 1 mg/kg.
Plasma samples were separated by centrifugation in presence of K2-EDTA as anticoagulant. Brain tissue were homogenized in phosphate buffer saline and processed for bioanalysis as per standard practice. Samples were analyzed by a discovery grade bio-analytical method using LC-MS/MS method.

PC12 cells = experiment: Neurite outgrowth; type: cell-based, rat; conditions: light microscopy, bar graph
Description: PC12 rat pheochromocytoma or SH-SY5Y human neuroblastoma cells were grown on glass coverslips in a 24-well cell culture dish in a humidified incubator at 37° C., 5% CO2. After 24 hours, the cells were washed with phosphate buffered saline and the serum concentration of the growth medium was reduced to 0.2%. After 16 hours in the reduced serum medium, 0.1% dimethyl sulfoxide (vehicle control) or compounds dissolved in dimethyl sulfoxide were added to the growth medium. Following 2 hours of exposure to compounds, the growth medium was supplemented with 6-hydroxydopamine (or 0.1% ascorbic acid vehicle control), nerve growth factor (or phosphate-buffered saline vehicle control), in addition to 0.1% dimethyl sulfoxide (vehicle control) or compounds dissolved in dimethyl sulfoxide. […] Phase contrast images were captured at 20× magnification and the percentage of cells with neurites longer than 20 μm were scored for approximately 200 cells in each condition using ImageJ software.
PC12 rat pheochromocytoma or SH-SY5Y human neuroblastoma cells were grown on glass coverslips in a 24-well cell culture dish in a humidified incubator at 37° C. and 5% CO2. […] Phase contrast images were captured at 20× magnification and the percentage of cells with neurites longer than 20 μm were scored for approximately 200 cells in each condition using ImageJ software.

[6] = test system: PC12 rat pheochromocytoma cells; experiment: Neuroprotection from 6-hydroxydopamine in PC12 cells (WST-8); type: cell-based; conditions: WST-8 assay, FIG. 1
Description: as §1
Cell viability was measured by reduction of WST-8 or AlamarBlue® and the relative protection from 6-hydroxydopamine was measured by calculating the percentage of viable cells normalized to 6-hydroxydopamine treated cells in the absence of compound. See FIGS. 1A and 1B for neuroprotection observed in PC12 cells treated with dual acting FKBP12 and FKBP52 inhibitory exemplary compounds CAP01687 (FIG. 1A) and CAP01693 (FIG. 1B) measured using WST-8 assay. Specifically, FIGS. 1A and 1B, show relative percent protection from 6-OHDA, the vehicle control being set to 0% relative protection. […] The bars in FIGS. 3A and 3B depict relative percent fluorescence, which is proportional to cell viability, with the vehicle control being 100%.] […]

WT21 cells = experiment: Cytotoxicity to WT21 cells (MTS tetrazolium dye reduction); type: cell-based, human; conditions: concentrations under 50 μM
[7] = brain, 1 h, n = 5, read-out: Brain concentrations, mean
[8] = plasma, 0.15 h, n = 5, read-out: Plasma Concentrations, mean
[9] = plasma, 0.5 h, n = 5, read-out: Plasma Concentrations, mean
[10] = plasma, 0.5 h, read-out: Plasma Concentrations, individual animals
[11] = plasma, 1 h, n = 5, read-out: Plasma Concentrations, mean
[12] = plasma, 1 h, read-out: Plasma Concentrations, individual animals

SMILES: CC(C)CCn1c(/C=C/c2ccc(F)cc2)nc2ccccc21 [CAP01559]
- Neuroprotection (cell viability) [1]: neuroprotection
- Neuroprotection (cell viability) [2]: neuroprotection

- microsomal CLint at 1 μM [3]: 52.4 µL/min/mg
- half-life at 1 μM [3]: 26.4 min
- microsomal CLint at 1 μM [4]: 202 µL/min/mg
- half-life at 1 μM [4]: 6.85 min
- Plasma Concentrations, mean ([5]; 0.15 h): 194.59 ng/mL
- Plasma Concentrations, mean ([5]; 0.5 h): 65.36 ng/mL
- Plasma Concentrations, mean ([5]; 1 h): 33.80 ng/mL
- concentration at 1 h [5, 7]: 70.4 ng/g
- concentration at 1 h ([5]; brain, 1 h, read-out: Brain concentrations, individual animals): 73.8 ng/g
- concentration at 0.15 h [5, 8]: 195 ± 69.9 ng/mL
- concentration at 0.5 h [5, 9]: 65.4 ± 16.2 ng/mL
- concentration at 0.5 h [5, 10]: 71.9 ng/mL
- concentration at 1 h [5, 11]: 33.8 ± 11 ng/mL
- concentration at 1 h [5, 12]: 33.7 ng/mL
SMILES: Cc1ccc(Cn2c(/C=C/c3ccc(F)cc3)nc3ccccc32)cc1 [CAP01551, 2-[2-(4-fluorophenyl)vinyl]-1-(4-methylbenzyl)-1H-benzimidazole]
- Neuroprotection (cell viability) [2]: neuroprotection
- Plasma Concentrations, individual animals ([5]; 0.15 h): 217.36 ng/mL and 295.33 ng/mL and 122.46 ng/mL and 203.22 ng/mL and 134.60 ng/mL
- Plasma Concentrations, individual animals ([5]; 0.5 h): 88.98 ng/mL and 46.31 ng/mL and 62.88 ng/mL and 56.74 ng/mL
- Brain concentrations, individual animals ([5]; 1 h): 81.88 ng/G and 57.91 ng/G and 63.84 ng/G and 74.50 ng/G
- Plasma Concentrations, individual animals ([5]; 1 h): 52.86 ng/mL (2×) and 27.45 ng/mL (2×) and 27.24 ng/mL (2×) and 27.74 ng/mL (2×) and 33.70 ng/mL

SMILES: O=C(N[C@@H](Cc1ccc(Cl)cc1)C(=O)NCCCc1ccccc1)c1ccc2cc(F)ccc2c1 [CAP01687]
- Neuroprotection (cell viability) [1]: neuroprotection
- Neuroprotection (cell viability) [2]: neuroprotection
- Neurite outgrowth (percentage of cells with neurites longer than 20 μm) (PC12 cells): promotion of neurite outgrowth
- Neuroprotection (relative percent protection from 6-OHDA) [6]: neuroprotection

- microsomal CLint at 1 μM [3]: 167 µL/min/mg
- half-life at 1 μM [3]: 8.29 min
- microsomal CLint at 1 μM [4]: 130 µL/min/mg
- half-life at 1 μM [4]: 10.7 min
- Plasma Concentrations, mean ([5]; 0.15 h): 239.7 ng/mL
- Plasma Concentrations, mean ([5]; 0.5 h): 100.5 ng/mL
- Plasma Concentrations, mean ([5]; 1 h): 49.8 ng/mL
- concentration at 1 h [5, 7]: 19.1 ng/g
- concentration at 0.15 h [5, 8]: 240 ± 14.2 ng/mL
- concentration at 0.15 h ([5]; plasma, 0.15 h, read-out: Plasma Concentrations, individual animals): 246 ng/mL
- concentration at 0.5 h [5, 9]: 100 ± 5.1 ng/mL
- concentration at 0.5 h [5, 10]: 103 ng/mL
- concentration at 1 h [5, 11]: 49.8 ± 6.8 ng/mL
- concentration at 1 h [5, 12]: 50.3 ng/mL
SMILES: O=C(N[C@H](C(=O)NCCCc1ccccc1)c1ccccc1)c1ccc2cc(F)ccc2c1 [CAP01723, (2S)-2-[(6-fluoronaphthalen-2-yl)formamido]-2-phenyl-N-(3-phenylpropyl)acetamide]
- Plasma Concentrations, individual animals ([5]; 0.15 h): 258.2 ng/mL and 225.3 ng/mL and 225.4 ng/mL and 244.2 ng/mL
- Plasma Concentrations, individual animals ([5]; 0.5 h): 106.1 ng/mL and 97.6 ng/mL and 102.6 ng/mL and 93.2 ng/mL
- Brain concentrations, individual animals ([5]; 1 h): 17.2 ng/G and 14.6 ng/G and 31.9 ng/G and 9.5 ng/G and 22.3 ng/G
- Plasma Concentrations, individual animals ([5]; 1 h): 41.1 ng/mL (2×) and 58.7 ng/mL (2×) and 53.5 ng/mL (2×) and 45.4 ng/mL (2×) and 50.3 ng/mL

SMILES: COc1ccc(/N=N/c2nc3ccccc3n2C)c2ccccc12 [CAP01324]
- Neuroprotection (relative change in absorbance, MTS) ([1]; A53T mutant cells, 100 nM, MTS tetrazolium dye): neuroprotection
- Cytotoxicity (relative change in absorbance, MTS) (WT21 cells): not cytotoxic

SMILES: O=C(N[C@@H](Cc1ccc(Cl)cc1)C(=O)NCCCc1cccnc1)c1ccc2cc(F)ccc2c1 [CAP01693, (2S)-3-(4-chlorophenyl)-2-[(6-fluoronaphthalen-2-yl)-formamido]-N-[3-(pyridine-3-yl)propyl]propanamide]
- Neuroprotection (relative percent protection from 6-OHDA) [6]: neuroprotection

SMILES: CCn1c(/C=C/c2ccc(Cl)cc2)nc2ccccc21 [CAP01510]
- Neurite outgrowth (percentage of cells with neurites longer than 20 μm) (PC12 cells): dose dependent promotion of neurite outgrowth
